The experiment relates to CD2F1 mice, L1210 leukemia ip, survival T/C. Briefly: NCI In Vivo Anticancer Drug Screen. Data for tumor model L1210 Leukemia (intraperitoneal) in CD2F1 (CDF1) mice. As to conditions: higher = longer survival. In a few lines:
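Compound-dosed mice with transplantable tumor versus matched vehicle controls; endpoint ratio T/C reported.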

[1] abbreviates: endpoint: mean survival time, dose: 50.0 mg/kg/injection, schedule: Q04DX003 (ip), vehicle: Klucel (hydroxypropylcellulose) (HPC).
Setting [2] is: endpoint: mean survival time, dose: 100.0 mg/kg/injection, schedule: Q01DX001 (ip), vehicle: saline with Tween-80.
Setting [3] is: endpoint: mean survival time, dose: 200.0 mg/kg/injection, schedule: Q01DX001 (ip), vehicle: saline with Tween-80.
Setting [4] is: endpoint: mean survival time, dose: 400.0 mg/kg/injection, schedule: Q01DX001 (ip), vehicle: saline with Tween-80.
Setting [5] is: endpoint: mean survival time, dose: 100.0 mg/kg/injection, schedule: Q04DX003 (ip), vehicle: Klucel (hydroxypropylcellulose) (HPC).
Where [6] appears, read: endpoint: mean survival time, dose: 200.0 mg/kg/injection, schedule: Q04DX003 (ip), vehicle: Klucel (hydroxypropylcellulose) (HPC).
[7] abbreviates: endpoint: mean survival time, dose: 100.0 mg/kg/injection, schedule: Q01DX009 (ip), vehicle: saline with Tween-80.
The mark [8] stands for this setting: endpoint: mean survival time, dose: 200.0 mg/kg/injection, schedule: Q01DX009 (ip), vehicle: saline with Tween-80.
The mark [9] stands for this setting: endpoint: mean survival time, dose: 400.0 mg/kg/injection, schedule: Q01DX009 (ip), vehicle: saline with Tween-80.
[10] abbreviates: endpoint: mean survival time, dose: 50.0 mg/kg/injection, schedule: Q01DX009 (ip), vehicle: saline with Tween-80.
Setting [11] is: endpoint: mean survival time, dose: 100.0 mg/kg/injection, schedule: Q04DX003 (ip), vehicle: saline with Tween-80.
[12] abbreviates: endpoint: mean survival time, dose: 100.0 mg/kg/injection, schedule: Q04DX003 (ip), vehicle: saline.
[13] abbreviates: endpoint: mean survival time, dose: 200.0 mg/kg/injection, schedule: Q04DX003 (ip), vehicle: saline with Tween-80.
The mark [14] stands for this setting: endpoint: mean survival time, dose: 200.0 mg/kg/injection, schedule: Q04DX003 (ip), vehicle: saline.

Several values for one entry are separate records, joined by “and”; a condition that tells them apart may be missing. Identical values can stand only once. Toxic doses and inconclusive results are not listed.

In the case of `CC(C)(C)NCC(CN(CC(CNC(C)(C)C)C(=O)c1ccccc1)C(C)(C)C)C(=O)c1ccccc1` (stereo unspecified), the T/C is 98 % of control (endpoint: mean survival time, dose: 12.5 mg/kg/injection, schedule: Q04DX003 (ip), vehicle: Klucel (hydroxypropylcellulose) (HPC)); 96 % of control (endpoint: mean survival time, dose: 25.0 mg/kg/injection, schedule: Q04DX003 (ip), vehicle: Klucel (hydroxypropylcellulose) (HPC)); 102 % of control under setting [1].
For `Cc1ccc(S(=O)(=O)N/N=C/c2ccc(C(=O)O)cc2)cc1`, the T/C is, setting by setting: (endpoint: mean survival time, dose: 12.5 mg/kg/injection, schedule: Q04DX003 (ip), vehicle: other) 101 % of control; (endpoint: mean survival time, dose: 25.0 mg/kg/injection, schedule: Q04DX003 (ip), vehicle: other) 97 % of control; (endpoint: mean survival time, dose: 50.0 mg/kg/injection, schedule: Q04DX003 (ip), vehicle: other) 106 % of control; (endpoint: mean survival time, dose: 100.0 mg/kg/injection, schedule: Q04DX003 (ip), vehicle: other) 95 % of control; (endpoint: mean survival time, dose: 200.0 mg/kg/injection, schedule: Q04DX003 (ip), vehicle: other) 95 % of control; (endpoint: mean survival time, dose: 400.0 mg/kg/injection, schedule: Q04DX003 (ip), vehicle: other) 106 % of control.
For the compound `CCOC(=O)/C=C(\C)Nc1cccc(NC(C)=O)c1`, the T/C (endpoint: mean survival time, dose: 12.5 mg/kg/injection, schedule: Q01DX009 (ip), vehicle: other) is 97 % of control; the T/C (endpoint: mean survival time, dose: 25.0 mg/kg/injection, schedule: Q01DX009 (ip), vehicle: other) was 91 % of control; the T/C (endpoint: mean survival time, dose: 50.0 mg/kg/injection, schedule: Q01DX009 (ip), vehicle: other) was 91 % of control; the T/C (endpoint: mean survival time, dose: 100.0 mg/kg/injection, schedule: Q01DX009 (ip), vehicle: other) is 100 % of control; the T/C (endpoint: mean survival time, dose: 200.0 mg/kg/injection, schedule: Q01DX009 (ip), vehicle: other) is 91 % of control.
Consider `CN(N=C(C1CC1)C1CC1)c1ccccc1`, for which the T/C by setting is: under setting [2], 100 % of control; under setting [3], 107 % of control; under setting [4], 105 % of control.
Turning to `CC(=O)Nc1ncc2ccccc2c1-c1ccc(N(CCCl)CCCl)cc1`, the T/C runs as follows: (endpoint: mean survival time, dose: 25.0 mg/kg/injection, schedule: Q04DX003 (ip), vehicle: DMSO) 105 % of control; (endpoint: mean survival time, dose: 50.0 mg/kg/injection, schedule: Q04DX003 (ip), vehicle: DMSO) 94 % of control; under setting [1], 95 % of control; (endpoint: mean survival time, dose: 100.0 mg/kg/injection, schedule: Q04DX003 (ip), vehicle: DMSO) 111 % of control; under setting [5], 104 % of control; (endpoint: mean survival time, dose: 100.0 mg/kg/injection, schedule: Q04DX003 (ip), vehicle: saline + alcohol) 92 % of control. For the same compound, the T/C under setting [6] was 101 % of control; the T/C (endpoint: mean survival time, dose: 200.0 mg/kg/injection, schedule: Q04DX003 (ip), vehicle: saline + alcohol) is 101 % of control; the T/C (endpoint: mean survival time, dose: 400.0 mg/kg/injection, schedule: Q04DX003 (ip), vehicle: DMSO) is 150 % of control; the T/C (endpoint: mean survival time, dose: 400.0 mg/kg/injection, schedule: Q04DX003 (ip), vehicle: Klucel (hydroxypropylcellulose) (HPC)) is 104 % of control; the T/C (endpoint: mean survival time, dose: 400.0 mg/kg/injection, schedule: Q04DX003 (ip), vehicle: saline + alcohol) is 97 % of control.
Regarding `Cc1cc2nc(CC(O)(C(F)(F)F)C(F)(F)F)oc2cc1C`, the T/C under setting [7] is 91 % of control, the T/C under setting [8] is 92 % of control and the T/C under setting [9] is 96 % of control.
As to `CS(=O)(=O)Cc1cnc(N)nc1-c1ccccc1`, the T/C reads like this: under setting [2], 94 % of control; under setting [3], 97 % of control; under setting [4], 94 % of control.
On to `Cn1cccc1-c1cccnc1`, for which the T/C is, setting by setting: (endpoint: mean survival time, dose: 75.0 mg/kg/injection, schedule: Q01DX001 (ip), vehicle: saline) 97 % of control; (endpoint: mean survival time, dose: 150.0 mg/kg/injection, schedule: Q01DX001 (ip), vehicle: saline) 100 % of control.
Turning to `Cc1c2ccccc2c(C)c2cnccc12`, the T/C is, setting by setting: under setting [7], 97 % of control; under setting [8], 97 % of control; under setting [9], 92 % of control.
As for `[B-][N+]1(C)CC[N+]([B-])(C)CC1` (stereo unspecified), the T/C was 104 % of control (endpoint: mean survival time, dose: 5.0 mg/kg/injection, schedule: Q01DX009 (ip), vehicle: saline with Tween-80); 103 % of control (endpoint: mean survival time, dose: 5.0 mg/kg/injection, schedule: Q04DX003 (ip), vehicle: saline); 96 % of control (endpoint: mean survival time, dose: 10.0 mg/kg/injection, schedule: Q01DX009 (ip), vehicle: saline with Tween-80); 98 % of control (endpoint: mean survival time, dose: 10.0 mg/kg/injection, schedule: Q04DX003 (ip), vehicle: saline); 98 % of control (endpoint: mean survival time, dose: 20.0 mg/kg/injection, schedule: Q04DX003 (ip), vehicle: saline).
In the case of `C/C(=N/NC(N)=S)c1ccc2ccccc2c1`, the T/C is 103 % of control (endpoint: mean survival time, dose: 6.25 mg/kg/injection, schedule: Q01DX009 (ip), vehicle: saline with Tween-80); 115 % of control (endpoint: mean survival time, dose: 12.5 mg/kg/injection, schedule: Q01DX009 (ip), vehicle: saline with Tween-80); 122 % of control (endpoint: mean survival time, dose: 25.0 mg/kg/injection, schedule: Q01DX009 (ip), vehicle: saline with Tween-80); 89 % of control under setting [10].
`Cc1ccc(N)c(Br)c1`: the T/C reads like this: (endpoint: mean survival time, dose: 25.0 mg/kg/injection, schedule: Q04DX003 (ip), vehicle: saline) 111 % of control; (endpoint: mean survival time, dose: 50.0 mg/kg/injection, schedule: Q04DX003 (ip), vehicle: saline) 100 % of control; under setting [11], 92 % of control; under setting [12], 98 % of control and 100 % of control; under setting [13], 98 % of control.
In the case of `O=C(O)CCCOc1ccc(Cl)cc1Cl`, the T/C by setting is: under setting [12], 96 % of control; under setting [14], 103 % of control; (endpoint: mean survival time, dose: 400.0 mg/kg/injection, schedule: Q04DX003 (ip), vehicle: saline) 97 % of control.
Consider `O=c1[nH]c2ccccc2nc1C(Cl)Cl`, for which the T/C (endpoint: mean survival time, dose: 25.0 mg/kg/injection, schedule: Q01DX009 (ip), vehicle: Klucel (hydroxypropylcellulose) (HPC)) is 105 % of control; the T/C (endpoint: mean survival time, dose: 50.0 mg/kg/injection, schedule: Q01DX009 (ip), vehicle: Klucel (hydroxypropylcellulose) (HPC)) is 100 % of control; the T/C under setting [1] is 114 % of control; the T/C (endpoint: mean survival time, dose: 100.0 mg/kg/injection, schedule: Q01DX009 (ip), vehicle: Klucel (hydroxypropylcellulose) (HPC)) was 116 % of control; the T/C under setting [5] is 105 % of control; the T/C under setting [6] is 105 % of control. Besides, the T/C (endpoint: median survival time, dose: 50.0 mg/kg/injection, schedule: Q04DX003 (ip), vehicle: Klucel (hydroxypropylcellulose) (HPC)) was 107 % of control; the T/C (endpoint: median survival time, dose: 100.0 mg/kg/injection, schedule: Q04DX003 (ip), vehicle: Klucel (hydroxypropylcellulose) (HPC)) is 104 % of control; the T/C (endpoint: median survival time, dose: 200.0 mg/kg/injection, schedule: Q04DX003 (ip), vehicle: Klucel (hydroxypropylcellulose) (HPC)) was 117 % of control.
Turning to `CCCCC(CC)COP(=O)(CC(CC)CCCC)OCC(CC)CCCC` (stereo unspecified), the T/C is 86 % of control under setting [12] and 94 % of control under setting [14].
For `ClI(Cl)c1ccccc1`, the T/C under setting [7] is 98 % of control.
As to `Cc1cc(C)c(S(=O)(=O)F)cc1C(=O)O`, the T/C was 101 % of control under setting [2]; 96 % of control and 100 % of control under setting [7]; 92 % of control and 104 % of control (endpoint: mean survival time, dose: 100.0 mg/kg/injection, schedule: Q04DX002 (ip), vehicle: saline with Tween-80); 107 % of control under setting [11]; 95 % of control under setting [3]; 93 % of control and 94 % of control under setting [8]. The T/C reads like this: (endpoint: mean survival time, dose: 200.0 mg/kg/injection, schedule: Q04DX002 (ip), vehicle: saline with Tween-80) 96 % of control and 104 % of control; under setting [13], 102 % of control; under setting [9], 96 % of control; (endpoint: mean survival time, dose: 400.0 mg/kg/injection, schedule: Q04DX002 (ip), vehicle: saline with Tween-80) 94 % of control and 102 % of control; (endpoint: mean survival time, dose: 400.0 mg/kg/injection, schedule: Q04DX003 (ip), vehicle: saline with Tween-80) 100 % of control.
On to `Cc1sc2ncnc(Cl)c2c1C`, for which the T/C (endpoint: mean survival time, dose: 25.0 mg/kg/injection, schedule: Q04DX003 (ip), vehicle: saline with Tween-80) is 103 % of control; the T/C (endpoint: mean survival time, dose: 50.0 mg/kg/injection, schedule: Q04DX003 (ip), vehicle: saline with Tween-80) is 114 % of control; the T/C under setting [2] is 97 % of control; the T/C under setting [11] is 94 % of control.
As for `COC(=O)c1ccccc1N=NNc1cccc(SC)c1`, the T/C was 95 % of control under setting [10], 103 % of control under setting [7] and 97 % of control under setting [8].

Source of the values: PubChem BioAssay AID256 (DTP/NCI, 2004).
